Reference: US6906095B2, “Indolylalkylidenehydrazine-carboximidamide derivatives as 5-hydroxytryptamine-6 ligands” (Wyeth, priority 2002, dated 2005)

Target: T1, human cloned 5-HT6 receptors (Homo sapiens, UniProt P50406)
T1 construct: expressed in transfected cells; host or cells: Hela cells
Test: 5-HT6 binding affinity, [3H]-LSD displacement in membranes of Hela cells
Settings: for inhibition at 0.1 µM: test compound dose 100 nM; for inhibition at 1 µM: test compound dose 1000 nM, read-out: % Inhibition

T1 sequence (P50406 whole entry): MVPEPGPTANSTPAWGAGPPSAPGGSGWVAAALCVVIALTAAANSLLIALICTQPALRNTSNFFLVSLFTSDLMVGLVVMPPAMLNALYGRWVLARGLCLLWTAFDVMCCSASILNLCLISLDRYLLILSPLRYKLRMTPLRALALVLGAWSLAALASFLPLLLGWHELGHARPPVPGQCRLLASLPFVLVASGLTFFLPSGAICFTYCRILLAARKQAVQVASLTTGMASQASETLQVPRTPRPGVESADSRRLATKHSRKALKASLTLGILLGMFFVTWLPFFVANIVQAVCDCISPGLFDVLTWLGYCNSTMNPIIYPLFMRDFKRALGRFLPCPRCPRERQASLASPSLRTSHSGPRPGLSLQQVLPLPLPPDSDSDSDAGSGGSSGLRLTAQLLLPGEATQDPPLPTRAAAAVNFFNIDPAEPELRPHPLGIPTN

| Compound | inhibition at 0.1 µM ([3H]-LSD 3.0 nM) | inhibition at 1 µM ([3H]-LSD 3.0 nM) | other results |
| --- | --- | --- | --- |
| CC(=NNC(=N)N)c1cn(S(=O)(=O)c2ccc(N)cc2)c2ccccc12 [Example 23, 2-(1-{1-[(4-aminophenyl)sulfonyl]-1H-indol-3-yl}ethylidene)hydrazinecarboximidamide] | 92.9% | – | Ki: 2 nM |
| CC(=NNC(=N)N)c1cn(S(=O)(=O)c2cc(Cl)c(Cl)s2)c2ccccc12 [Example 42, 2-(1-{1-[(4,5-dichlorothien-2-yl)sulfonyl]-1H-indol-3-yl}ethylidene)hydrazinecarboximidamide] | 46.3% | – | – |
| CC(=NNC(=N)N)c1c(-c2ccc3ccccc3c2)n(S(=O)(=O)c2ccccc2)c2ccccc12 [Example 14, 2-{1-[2-(2-naphthyl)-1-(phenylsulfonyl)-1H-indol-3-yl]ethylidene}hydrazinecarboximidamide] | – | 85.4% | – |
| CCCCC(=NNC(=N)N)c1cn(S(=O)(=O)c2ccc3ccccc3c2)c2ccccc12 [Example 65, 2-{1-[1-(2-naphthylsulfonyl)-1H-indol-3-yl]pentylidene}hydrazinecarboximidamide] | – | 62.3% | – |
| CC(=NNC(=N)N)c1c(-c2ccc(Cl)cc2)n(S(=O)(=O)c2ccccc2)c2ccccc12 [Example 95, 2-{1-[2-(4-chlorophenyl)-1-(phenylsulfonyl)-1H-indol-3-yl]ethylidene}hydrazinecarboximidamide] | – | 89.6% | – |
| COc1ccc(S(=O)(=O)n2cc(C(C)=NNC(=N)N)c3ccccc32)cc1 [Example 61, 2-(1-{1-[(4-methoxyphenyl)sulfonyl]-1H-indol-3-yl}ethylidene)hydrazinecarboximidamide] | – | 83.6% | – |
| CCCCS(=O)(=O)n1cc(C(=NNC(=N)N)C2CC2)c2ccc(F)cc21 [Example 105, 2-[[1-(butylsulfonyl)-6-fluoro-1H-indol-3-yl](cyclopropyl)methylidene]hydrazinecarboximidamide] | 58.4% | – | – |
| N=C(N)NN=C(Cc1ccccc1)c1cn(S(=O)(=O)c2ccccc2)c2ccccc12 [Example 6, 2-{2-phenyl-1-[1-(phenylsulfonyl)-1H-indol-3-yl]ethylidene}hydrazinecarboximidamide] | – | 97.8% | Ki: 11 nM |
| COc1ccc(S(=O)(=O)n2cc(C(=NNC(=N)N)C3CC3)c3ccccc32)cc1OC [Example 71, 2-(cyclopropyl{1-[(3,4-dimethoxyphenyl)sulfonyl]-1H-indol-3-yl}methylidene)hydrazinecarboximidamide] | 61.5% | – | – |
| CC(=NNC(=N)N)c1cn(S(=O)(=O)c2ccc(-c3ccccn3)s2)c2ccccc12 [Example 53, 2-(1-{1-[(5-pyridin-2-ylthien-2-yl)sulfonyl]-1H-indol-3-yl}ethylidene)hydrazinecarboximidamide] | 38.4% | – | – |
| CS(=O)(=O)n1cc(C(=NNC(=N)N)C2CC2)c2ccccc21 [Example 57, 2-{cyclopropyl[1-(methylsulfonyl)-1H-indol-3-yl]methylidene}hydrazinecarboximidamide] | 40.4% | – | – |
| CC(=NNC(=N)N)c1cn(S(=O)(=O)c2ccc(Br)s2)c2ccccc12 [Example 33, 2-(1-{1-[(5-bromothien-2-yl)sulfonyl]-1H-indol-3-yl}ethylidene)hydrazinecarboximidamide] | 76.4% | – | Ki: 19 nM |
| CC(C)CC(=NNC(=N)N)c1cn(S(=O)(=O)c2ccccc2)c2ccccc12 [Example 7, 2-{3-methyl-1-[1-(phenylsulfonyl)-1H-indol-3-yl]butylidene}hydrazinecarboximidamide] | – | 98.5% | Ki: 12 nM |
| COc1ccc(S(=O)(=O)n2cc(C(C)=NNC(=N)N)c3cc(Cl)ccc32)cc1OC [Example 87, 2-(1-{5-chloro-1-[(3,4-dimethoxyphenyl)sulfonyl]-1H-indol-3-yl}ethylidene)hydrazinecarboximidamide] | – | 88.9% | – |
| N=C(N)NN=C(c1cn(S(=O)(=O)c2ccccc2)c2ccccc12)C1CC1 [Example 68, 2-{cyclopropyl[1-(phenylsulfonyl)-1H-indol-3-yl]methylidene}hydrazinecarboximidamide] | – | – | inhibition at 0.01 µM (test compound dose 10 nM, [3H]-LSD 3.0 nM): 68.3% |
